# Columns and labels:
# [1] = tested on: NUGC3 cells (p53 Y220C); assay: Cell Proliferation Assay (CellTiter-Glo), NUGC3 p53 Y220C; format: cell-based; settings: Homo sapiens, NUGC-3, 120 h, 5 days, read-out: CTG NUGC3 P53 Y220C IC50
# Method: (§1) Inducible p53 Y220C and R273H constructs (Tet-One inducible expression system; Takara) were stably expressed in NCIH1299 cells by lentiviral transduction. NUGC3, A549, BxPC3, T3M4, HuH7, HCC2935, MFE296, NCIH1299, NCIH1299-inducible p53 Y220C, and NCIH1299-inducible p53 R273H cell lines were used for cell proliferation assay. 250-500 cells were seeded in each well of 384 plate and then compounds were dispensed into each well using Echo or Tecan. After 5 days of incubation, equal volume of CellTiter-Glo reagent (G7570; Promega) was added into each well and the plate was incubated at room temperature for 10 minutes with shaking. The luminescent signal was measured by PheraStar microplate reader and IC50 was calculated.
# [2] = tested on: NCIH1299-inducible p53 Y220C cells; assay: Cell Proliferation Assay (CellTiter-Glo), NCIH1299-inducible p53 Y220C; format: cell-based; settings: Homo sapiens, NCI-H1299, 120 h, 5 days, read-out: CTG H1299 P53 Y220C IC50
# Method: as §1
# [3] = target: p53 Y220C (Homo sapiens, UniProt P04637, Y220C); assay: Luciferase Reporter Assay, p53 Y220C (NCIH1299 cells with inducible p53 Y220C and p53 response element-luciferase); format: cell-based; settings: 6 hour compound treatment, read-out: Luc P53 Y220C AC50
# Method: Luciferase reporter (Luc) driven by p53 response element (LTV-p53-Luc (SKU #: LTLR007); G&P Biosciences) and inducible p53 Y220C construct (Tet-One inducible expression system; Takara) were stably expressed in NCIH1299 cells by lentiviral transduction. The cells were then used for p53 reporter assay. 5,000 cells were seeded in each well of 384 plate and cultured in 0.5 ug/mL doxycycline (D3072; Sigma) containing medium for 24 hours before compound treatment. After 6 hour of compound treatment, equal volume of One-Glo reagent (E6110; Promega) was added to each well and the plate was incubated for 5 minutes with shaking at room temperature. The luciferase activity was immediately measured with PheraStar microplate reader. Luciferase activity was stimulated by 10 uM of a tool compound as positive control and AC50 was calculated.
# [4] = target: T1, p53 Y220C mutant protein (amino acid residues 94-293) (Homo sapiens, UniProt P04637, Y220C); assay: Surface Plasmon Resonance (SPR) assay, p53 Y220C Kd_kinetic; settings: multi-cycle kinetics, 16 or 20 °C, pH 7.5, 1:1 binding model
# T1 construct: p53 Y220C mutant protein (amino acid residues 94-293)
# T1 sequence (P04637 94-293, stated change not applied): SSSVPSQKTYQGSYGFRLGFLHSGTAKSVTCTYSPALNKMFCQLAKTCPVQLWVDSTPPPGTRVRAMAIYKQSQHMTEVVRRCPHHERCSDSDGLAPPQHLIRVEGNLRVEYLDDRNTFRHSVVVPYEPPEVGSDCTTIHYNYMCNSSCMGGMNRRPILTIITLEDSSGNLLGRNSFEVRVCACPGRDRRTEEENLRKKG
# Method: SPR experiments are performed on a Biacore 8K instrument. […] Compounds are 2-fold, 7-point serial diluted; the top concentration varies depending on the potency. Compound binding affinities are measured in the multi-cycle kinetics mode, at 30 μL/min flow rate with 60 seconds association time and 120 seconds dissociation time. The running buffer contains 50 mM Tris, pH 7.5, 100 mM NaCl, 1 mM DTT, 0.01% Brij35, 0.05% Tween-20 and 1% DMSO. The assay temperature is maintained at 16 or 20 °C and data are fit into the 1:1 binding model using the Biacore Insight Evaluation software.
SMILES,AC50 [3] [nM],Kd [4] [nM],IC50 [1] [nM],IC50 [2] [nM]
"CNC(=O)c1cccc(C(=O)NCc2nc(-c3cc4c(N[C@@H]5CCN(C)C[C@@H]5F)cccn4c3SC(F)(F)F)no2)c1 [Example 58, N1—{[3-(8-{[(3S,4R)-3-fluoro-1-methylpiperidin-4-yl]amino}-3-[(trifluoromethyl)sulfanyl]indolizin-2-yl)-1,2,4-oxadiazol-5-yl]methyl}-N3-methylbenzene-1,3-dicarboxamide]",< 750,< 10,< 750,< 750
"CN1CC[C@@H](Nc2cccn3c(SC(F)(F)F)c(-c4noc(CNC(=O)c5ccc(-c6ccn[nH]6)s5)n4)cc23)[C@@H](F)C1 [Example 56, N-{[3-(8-{[(3S,4R)-3-fluoro-1-methylpiperidin-4-yl]amino}-3-[(trifluoromethyl)sulfanyl]indolizin-2-yl)-1,2,4-oxadiazol-5-yl]methyl}-5-(2H-pyrazol-3-yl)thiophene-2-carboxamide]",750 to 1500,10 to 100,< 750,< 750
"CN1CC[C@@H](Nc2cccn3c(SC(F)(F)F)c(-c4noc(CNC(=O)[C@H]5C[C@@H](O)C5)n4)cc23)[C@@H](F)C1 [Example 62, (1s,3s)-N-{[3-(8-{[(3S,4R)-3-fluoro-1-methylpiperidin-4-yl]amino}-3-[(trifluoromethyl)sulfanyl]indolizin-2-yl)-1,2,4-oxadiazol-5-yl]methyl}-3-hydroxycyclobutane-1-carboxamide]",1500 to 3000,< 10,1500 to 3000,750 to 1500
"CN1CC[C@@H](Nc2cccn3c(SC(F)(F)F)c(-c4noc(CNC(=O)COc5ccc(C#N)cc5)n4)cc23)[C@@H](F)C1 [Example 43, 2-(4-cyanophenoxy)-N-{[3-(8-{[(3S,4R)-3-fluoro-1-methylpiperidin-4-yl]amino}-3-[(trifluoromethyl)sulfanyl]indolizin-2-yl)-1,2,4-oxadiazol-5-yl]methyl}acetamide]",750 to 1500,10 to 100,750 to 1500,750 to 1500
"CN1CC[C@@H](Nc2cccn3c(SC(F)(F)F)c(-c4noc(CNC(=O)C5(NC(=O)OC(C)(C)C)CC5)n4)cc23)[C@@H](F)C1 [Example 22, tert-butyl N-[1-({[3-(8-{[(3S,4R)-3-fluoro-1-methylpiperidin-4-yl]amino}-3-[(trifluoromethyl)sulfanyl]indolizin-2-yl)-1,2,4-oxadiazol-5-yl]methyl}carbamoyl)cyclopropyl]carbamate]",≥ 3000,,1500 to 3000,≥ 3000
"CN1CC[C@@H](Nc2cccn3c(SC(F)(F)F)c(-c4noc(CNC(=O)c5ccc6c(c5)CC(=O)N6)n4)cc23)[C@@H](F)C1 [Example 18, N-{[3-(8-{[(3S,4R)-3-fluoro-1-methylpiperidin-4-yl]amino}-3-[(trifluoromethyl)sulfanyl]indolizin-2-yl)-1,2,4-oxadiazol-5-yl]methyl}-2-oxo-1,3-dihydroindole-5-carboxamide]",750 to 1500,< 10,< 750,750 to 1500
"COc1csc(C(=O)NCc2nc(-c3cc4c(N[C@@H]5CCN(C)C[C@@H]5F)cccn4c3SC(F)(F)F)no2)c1 [Example 37, N-{[3-(8-{[(3S,4R)-3-fluoro-1-methylpiperidin-4-yl]amino}-3-[(trifluoromethyl)sulfanyl]indolizin-2-yl)-1,2,4-oxadiazol-5-yl]methyl}-4-methoxythiophene-2-carboxamide]",< 750,< 10,< 750,< 750
"CN1CC[C@@H](Nc2cccn3c(SC(F)(F)F)c(-c4noc(CNC(=O)C5CC(F)(F)C5)n4)cc23)[C@@H](F)C1 [Example 10, 3,3-difluoro-N-{[3-(8-{[(3S,4R)-3-fluoro-1-methylpiperidin-4-yl]amino}-3-[(trifluoromethyl)sulfanyl]indolizin-2-yl)-1,2,4-oxadiazol-5-yl]methyl}cyclobutane-1-carboxamide]",1500 to 3000,,≥ 3000,≥ 3000
"CN1CC[C@@H](Nc2cccn3c(SC(F)(F)F)c(-c4noc(CNC(=O)C5COC5)n4)cc23)[C@@H](F)C1 [Example 25, N-{[3-(8-{[(3S,4R)-3-fluoro-1-methylpiperidin-4-yl]amino}-3-[(trifluoromethyl)sulfanyl]indolizin-2-yl)-1,2,4-oxadiazol-5-yl]methyl}oxetane-3-carboxamide]",1500 to 3000,< 10,1500 to 3000,1500 to 3000
"CN1CC[C@@H](Nc2cccn3c(SC(F)(F)F)c(-c4noc(CNC(=O)C5(C#N)CC5)n4)cc23)[C@@H](F)C1 [Example 28, 1-cyano-N-{[3-(8-{[(3S,4R)-3-fluoro-1-methylpiperidin-4-yl]amino}-3-[(trifluoromethyl)sulfanyl]indolizin-2-yl)-1,2,4-oxadiazol-5-yl]methyl}cyclopropane-1-carboxamide]",< 750,,< 750,< 750

# Now from value to compound, other results behind:
AC50 [3] [nM],Kd [4] [nM],SMILES,IC50 [1] [nM],IC50 [2] [nM]
1500 to 3000,10 to 100,"CN1CC[C@@H](Nc2cccn3c(SC(F)(F)F)c(-c4noc(CNC(=O)C(C)(C)O)n4)cc23)[C@@H](F)C1 [Example 49, N-{[3-(8-{[(3S,4R)-3-fluoro-1-methylpiperidin-4-yl]amino}-3-[(trifluoromethyl)sulfanyl]indolizin-2-yl)-1,2,4-oxadiazol-5-yl]methyl}-2-hydroxy-2-methylpropanamide]",≥ 3000,1500 to 3000
< 750,10 to 100,"CN1CC[C@@H](Nc2cccn3c(SC(F)(F)F)c(-c4noc(CNC(=O)c5ccc6ncsc6c5)n4)cc23)[C@@H](F)C1 [Example 40, N-{[3-(8-{[(3S,4R)-3-fluoro-1-methylpiperidin-4-yl]amino}-3-[(trifluoromethyl)sulfanyl]indolizin-2-yl)-1,2,4-oxadiazol-5-yl]methyl}-1,3-benzothiazole-6-carboxamide]",< 750,< 750
≥ 3000,10 to 100,"CN1CC[C@@H](Nc2cccn3c(SC(F)(F)F)c(-c4noc(CNC(=O)CC(C)(C)O)n4)cc23)[C@@H](F)C1 [Example 65, N-{[3-(8-{[(3S,4R)-3-fluoro-1-methylpiperidin-4-yl]amino}-3-[(trifluoromethyl)sulfanyl]indolizin-2-yl)-1,2,4-oxadiazol-5-yl]methyl}-3-hydroxy-3-methylbutanamide]",≥ 3000,≥ 3000
< 750,< 10,"CN1CC[C@@H](Nc2cccn3c(SC(F)(F)F)c(-c4noc(CNC(=O)c5ccn(C(C)(C)C)c5)n4)cc23)[C@@H](F)C1 [Example 7, 1-tert-butyl-N-{[3-(8-{[(3S,4R)-3-fluoro-1-methylpiperidin-4-yl]amino}-3-[(trifluoromethyl)sulfanyl]indolizin-2-yl)-1,2,4-oxadiazol-5-yl]methyl}pyrrole-3-carboxamide]",< 750,< 750
750 to 1500,< 10,"CC(=O)NCc1nc(-c2cc3c(N[C@@H]4CCN(C)C[C@@H]4F)cccn3c2SC(F)(F)F)no1 [Example 59, N-{[3-(8-{[(3S,4R)-3-fluoro-1-methylpiperidin-4-yl]amino}-3-[(trifluoromethyl)sulfanyl]indolizin-2-yl)-1,2,4-oxadiazol-5-yl]methyl}acetamide]",750 to 1500,< 750
< 750,< 10,"CN1CC[C@@H](Nc2cccn3c(SC(F)(F)F)c(-c4noc(CNC(=O)c5sccc5F)n4)cc23)[C@@H](F)C1 [Example 32, 3-fluoro-N-{[3-(8-{[(3S,4R)-3-fluoro-1-methylpiperidin-4-yl]amino}-3-[(trifluoromethyl)sulfanyl]indolizin-2-yl)-1,2,4-oxadiazol-5-yl]methyl}thiophene-2-carboxamide]",< 750,< 750
1500 to 3000,10 to 100,"CC(C)C(=O)NCc1nc(-c2cc3c(N[C@@H]4CCN(C)C[C@@H]4F)cccn3c2SC(F)(F)F)no1 [Example 60, N-{[3-(8-{[(3S,4R)-3-fluoro-1-methylpiperidin-4-yl]amino}-3-[(trifluoromethyl)sulfanyl]indolizin-2-yl)-1,2,4-oxadiazol-5-yl]methyl}-2-methylpropanamide]",1500 to 3000,1500 to 3000

# — patent publication US20260347353A1, “INDOLIZINE DERIVATIVES FOR TREATING CANCER” (Antares Therapeutics, Inc., priority 2022, published 2026)
